Our source for the cytotoxicity values is ChEMBL document CHEMBL3507680, “University of Dundee, Gates Library screen for HepG2 cell viability”.

The data set can be described thus: Human HepG2 cell viability assay in 384 well format. Conditions: HepG2 cells, read-out: Inhibition. Further details: dose 125 nL, time 70.5 hour; concentration not given beside the values. It counts as toxicity, cell-based.
On to `CC(C)c1ccc(-c2nnn(CCNS(C)(=O)=O)n2)cc1`, for which the cytotoxicity at 70.5 h worked out at 3.94%.
The figure for `CC(C)c1cc(C(=O)N2CCOCC2CC(=O)c2ccco2)nn1C` (stereo unspecified) is -0.209%.
The figure for `Cn1cc(CN2CC[C@H]3OCC[C@@H](C(=O)Nc4cnccn4)[C@@H]3C2)cn1` is 50.6%; for `Cc1cc(N(C)C)nc(C2(C)CCCNC2)n1` (stereo unspecified) it is 18.9%.
Under `Cc1nccn1-c1cccc(C2CCCN2S(=O)(=O)N(C)C)n1` (stereo unspecified) stands 2.07%.
For `O=C([C@H]1CN(Cc2cccnc2)C[C@H]2OCC[C@@H]12)N1CCCO1`, the cytotoxicity at 70.5 h is -6.93%.
The figure for `O=C(c1ccnnc1)N1CCC2(CC1)CC(N1CCOCC1)C2` is 33.7%.
Regarding `C[C@H]1CN(C(=O)c2ccoc2)C[C@@]12CCN(CCN(C)C)C2=O`, the cytotoxicity at 70.5 h was found to be 14.7%.
The figure for `Cc1[nH]/c(=N\C(=O)c2csc(NCC(C)C)n2)sc1C` is 5.69%; for `O=C1NC(c2cnc(C3CCC3)s2)Nc2ncccc21` (stereo unspecified) it is -26.5%; for `CN(CCCNC(=O)C1CCCN(C(N)=O)C1)S(C)(=O)=O` (stereo unspecified) it is -9.57%.
Under `Cc1cn2c(=O)c(-c3ccnc(N4CCC[C@@H]4CO)n3)cnc2s1` stands -3.36%; under `O=C1CC2(CCN(Cc3ccc(C(F)(F)F)nc3)CC2)CN1`, 8.74%; under `Brc1csc(CNCc2nnc3n2CCC3)c1`, -12.4%.
The figure for `CC(C)Cc1nc(C[S+]([O-])CC(=O)NCc2ccccc2)no1` (stereo unspecified) is -5.17%; for `NCCn1cc(C(=O)NCc2ccccc2-n2cccn2)nn1` it is -4.33%; for `NC(=O)N1Cc2nccn2CC(Cn2ncccc2=O)C1` (stereo unspecified) it is 1.65%.
As for `CN1CCC(C(=O)NCc2nncn2-c2ccccc2)CC1=O` (stereo unspecified), the cytotoxicity at 70.5 h is -16.9%.
Under `CCc1nccn1CCC(=O)N1CCCC1c1ccc(F)cc1` (stereo unspecified) stands -1.42%; under `CCOc1ccc(C2CC(=O)Nc3c2c(=O)nc2sccn32)cc1` (stereo unspecified), -31.7%.
The figure for `O=C(c1ccc(-c2cn[nH]c2)nc1)N1CCC(N2CCOCC2)CC1` is -3.67%; for `Cc1cc2n(n1)CC(CNCc1ccc(-n3cccn3)nc1)CN2` (stereo unspecified) it is 3.95%; for `CCC1=NN2C(=N)/C(=C/c3cccc(Cl)c3)C(=O)N=C2S1` it is -5.39%.
Regarding `CCN(C)CC1CCN(C(=O)Nc2ccc(C)cc2)C1` (stereo unspecified), the cytotoxicity at 70.5 h was -3.05%.
With `COCCC1(CO)CCCN(Cc2ccc(C#N)cc2)C1` (stereo unspecified), the cytotoxicity at 70.5 h is -1.95%.
Under `CCc1nc(CN2CCCC(N(C)CCc3cccs3)C2)no1` (stereo unspecified) stands 21.1%; under `CCc1nnc(CN2CCc3ccc(S(N)(=O)=O)cc32)o1`, -0.999%.
Under `Cc1cccc2c1C(=O)NC1(CCOCC1)N2` stands -13.5%; under `Cc1cc(NC(=O)NCCOc2ccc(Cl)cn2)no1`, -3.43%; under `CC(C)[C@@H]1CN(c2ccc(C(F)(F)F)cn2)C[C@H]1NS(C)(=O)=O`, 21.5%.
The figure for `CN1CC(=O)N(c2cccc(F)c2)CC12CCN(Cc1ccncc1)C2` (stereo unspecified) is 9.43%; for `CCCS(=O)(=O)N[C@H]1CN(c2ncccc2C(N)=O)C[C@@H]1C(C)C` it is 0.22%.
For the compound `O=C(c1ccco1)N1CCc2c(COCC3CC3)cncc2C1`, the cytotoxicity at 70.5 h is -8.01%.
Regarding `c1ccc(CCCN2CCOC(Cn3cccn3)C2)cc1` (stereo unspecified), the cytotoxicity at 70.5 h was -6.46%.
The figure for `Cc1cnc(N2CCc3c(CN(C)Cc4ccco4)cncc3C2)nc1` is -5.82%; for `O=C(NCCn1cccc1)C1CCCOC1` (stereo unspecified) it is -5.7%; for `CCNC(=O)N1CCCCC1CCNS(C)(=O)=O` (stereo unspecified) it is -10.5%.
The figure for `CN1CCN(C(=O)c2cc(-c3ccco3)cs2)CC1` is -20.5%.
The figure for `COCCN1CC(C(=O)N(C)Cc2ccc(Cl)s2)CC1=O` (stereo unspecified) is -10.5%.
As to `Cc1cc(C)nc(CCNC(=O)C(c2ccc(F)cc2)N(C)C)n1` (stereo unspecified), the cytotoxicity at 70.5 h stood at 30.5%.
As to `O=C(NCc1ccccc1)[C@@H]1Cc2[nH]cnc2CN1CC1CC1`, the cytotoxicity at 70.5 h is -3.43%.
The figure for `Cc1cc(C)n(C2CN(CC(O)c3cc(F)ccc3F)C2)n1` (stereo unspecified) is 6.16%.
Under `CN(C)S(=O)(=O)NCC(O)c1cc2ccccc2s1` (stereo unspecified) stands 3.05%; under `C[C@@H]1CN(CC(C)(C)N2CCCCC2)CC[C@@]1(O)C1CC1`, -5.05%; under `Cc1ccc2c(n1)N(C)CCN(Cc1ccco1)C2`, -1.42%.
The figure for `CSc1nccc(-c2cccc(-c3ccn(CC4COCCO4)n3)c2)n1` (stereo unspecified) is -13.8%; for `CCc1ccc(CCn2cnc(C#N)n2)cc1` it is -7.83%.
As for `N#CC1(C(=O)N2CCN(Cc3cscn3)CC2)CCCC1`, the cytotoxicity at 70.5 h worked out at 14.2%.
For `c1ccc(CCCN2CCCC2Cn2cncn2)cc1` (stereo unspecified), the cytotoxicity at 70.5 h was -3.86%.
The figure for `CC(CNC(=O)C1(c2ccc(F)cc2)CC1)CN1CCCC1=O` (stereo unspecified) is 15.4%; for `COc1ccc(COCC(O)CN(C)c2ccc(C)cc2C)cc1` (stereo unspecified) it is 0.463%; for `Cc1cnn(CCNCc2csc(-c3ccc(C)o3)n2)c1` it is 19.9%.
Under `Cc1cc(-n2nc(C3CC3)nc2-c2csnn2)ccn1` stands -10.1%; under `Cc1ccc(C(=O)N2CCc3ncccc3C2)cc1N1CCNC1=O`, 0.999%; under `CCCc1nnc(N2CCC3(CC2)CN(C)C(=O)O3)o1`, 2.82%.
Under `COCCO[C@@H]1C[C@H]2CN(C(=O)c3cccnc3)CCN2C1` stands -6.81%.
Turning to `Cc1nc(CNC(=O)NC2CCN(c3ncccc3Cl)C2)no1` (stereo unspecified), the cytotoxicity at 70.5 h is -3.51%.
Under `Cn1cccc1C(=O)N1CCN(Cc2ccncc2)c2ncccc2C1` stands -7.79%; under `O=C(COCC1CC1)Nc1ncccc1O`, -6.89%; under `COc1cccc(-c2noc(C3CCN(Cc4ccncc4)C3)n2)c1` (stereo unspecified), -3.26%.
Under `CCS(=O)(=O)NC[C@]12COC[C@H]1CN(Cc1cccnc1)C2` stands 7.34%; under `CCC(=O)N1CCC2(CC1)COCCN2Cc1ccc(F)cc1`, -10.7%; under `CC(C)c1noc(CS(=O)(=O)CC(=O)NCc2ccccc2)n1`, -9.16%.
For the compound `O=C(c1cncc(NCC2COc3ccccc3C2)n1)N1CCCCC1` (stereo unspecified), the cytotoxicity at 70.5 h stood at 0.974%.
The figure for `O=C1CNc2ncnc(Nc3cnn(Cc4ccc(F)cc4)c3)c2N1` is -12.2%; for `CC(O)CN1CCC(CN(C)CC(=O)NC2CCOCC2)CC1` (stereo unspecified) it is -2.54%; for `COC(=O)c1cnc(/C=C/c2ccc(C(=O)O)cc2)s1` it is 0.0314%.
Under `Cc1cccc(C(=O)N2CCC3(CC2)CC(c2ccccc2)C(=O)N3)c1` (stereo unspecified) stands -0.963%; under `Cc1ccnc(NCc2cn3nc(C)sc3n2)n1`, 1.46%.
On to `CCc1cc(N2CCSCC2)n2nc(C)c(C)c2n1`, for which the cytotoxicity at 70.5 h worked out at 12.2%.
Under `CCN1C(=O)CCC12CCCN(Cc1ccc(F)cc1)CC2` (stereo unspecified) stands -9.34%.
For `Cc1nc2c(N(CCC(N)=O)CCc3ccccc3)ncnc2o1`, the cytotoxicity at 70.5 h was determined as 22%.
Under `CCN1C[C@H]2CCN(C(=O)C3CCCO3)CC[C@H]2S1(=O)=O` (stereo partly specified) stands -7.09%; under `Cc1ncsc1C(=O)N1CCCC(n2cncn2)C1` (stereo unspecified), -13.3%; under `COCCN(Cc1c(C)nn(C)c1C)C(=O)C1COc2ccccc2C1` (stereo unspecified), -1.84%.
The figure for `O=C(O)[C@@H]1CN(C2CCCC2)C[C@H]1C1CC1` is -8.02%; for `NC(=O)C1CN(C(=O)Nc2ccccc2-c2cccs2)CCO1` (stereo unspecified) it is -1.53%.
As for `CN(C)CCN(Cc1ccco1)C(=O)Cc1cn2ccsc2n1`, the cytotoxicity at 70.5 h is -3.81%.
The figure for `CN(CC1COc2ccccc2O1)C(=O)CCn1cncn1` (stereo unspecified) is -9.47%.
The figure for `O=C(NCc1csc(Br)c1)c1ccc(=O)[nH]n1` is -15.6%; for `O=C(c1ccc(OCC2CC2)nc1)N1CCCC(n2ccnc2)C1` (stereo unspecified) it is -14.6%; for `CN1CCC(Cc2nc(-c3cnccn3)n(Cc3ccccc3)n2)CC1` it is -4.63%.
The figure for `Cc1nn(C)cc1C(=O)N1CCCC(n2nnc3cc(F)ccc32)C1` (stereo unspecified) is 11.8%.
For the compound `COCCN1C[C@H]2CC[C@@H]1CN(CC(=O)Nc1ccn(C)n1)C2`, the cytotoxicity at 70.5 h is -9.39%.
For `OC1(CNCCc2csc(-c3cccnc3)n2)CCNC1` (stereo unspecified), the cytotoxicity at 70.5 h was -14.2%.
The figure for `CN(CC(=O)N1CC(Oc2ccccc2Cl)C1)Cc1ccncc1` is 12.8%; for `Cc1cc(C)cc(C2(C(=O)NC(C)Cn3ccnc3)CC2)c1` (stereo unspecified) it is 9.35%.
The figure for `CC(C)(NS(C)(=O)=O)C(=O)NCCc1csc2ccccc12` is 4.98%.
With `O=C(COc1ccc2cccnc2c1)N1CCN[C@H]2CS(=O)(=O)C[C@H]21`, the cytotoxicity at 70.5 h was determined as 18.5%.
Under `COc1cccc(C2CC(=O)Nc3c2cnn3C(C)(C)C)c1` (stereo unspecified) stands -6.1%; under `CN(C)c1nc(N)nc(CN2CCC(c3ccccc3)CC2)n1`, -10.6%; under `Cn1cc(CN(Cc2ccccc2)Cc2ccccn2)cn1`, 18%.
The figure for `Cc1cc(C)n(-c2nc(C(=O)NCCS(=O)(=O)N3CCCCC3)cs2)n1` is -2.01%; for `O=C(c1ccc(NCc2ccco2)nc1)N1CCc2ccccc21` it is -3.94%.
For the compound `Cc1cccc(-c2nc(CNC3CCc4ncnn4C3)no2)c1` (stereo unspecified), the cytotoxicity at 70.5 h is -4.91%.
`COCCCn1ccc(NC(=O)NCCc2cccnc2)n1`: the cytotoxicity at 70.5 h is -6.28%.
Under `Cc1c(COC(C)C)cccc1NC(=O)N1CC[C@H](O)C1` stands -6.27%; under `CSc1c[nH]nc1NS(=O)(=O)c1cc(F)ccc1C`, -3.64%.
As to `N#CCCN1CCN(S(=O)(=O)c2ccc(Cl)s2)CC1`, the cytotoxicity at 70.5 h worked out at 15.9%.
`CC(c1ccc(C(F)(F)F)cc1)N1CCN(CCS(C)(=O)=O)CC1` (stereo unspecified): the cytotoxicity at 70.5 h was -1.96%.
Under `CCC(C)N(Cc1cccnc1)Cc1cc2c(cc1OC)OCO2` (stereo unspecified) stands 0.778%.
